Laboratory results as given in ChEMBL document CHEMBL5291721, “A preclinical secondary pharmacology resource illuminates target-adverse drug reaction associations of marketed drugs” (Nat Commun, 2023).

Assays:
Estrogen receptor = molecular target: T1, Estrogen receptor (Homo sapiens, UniProt P03372)
T1 sequence (P03372 whole entry): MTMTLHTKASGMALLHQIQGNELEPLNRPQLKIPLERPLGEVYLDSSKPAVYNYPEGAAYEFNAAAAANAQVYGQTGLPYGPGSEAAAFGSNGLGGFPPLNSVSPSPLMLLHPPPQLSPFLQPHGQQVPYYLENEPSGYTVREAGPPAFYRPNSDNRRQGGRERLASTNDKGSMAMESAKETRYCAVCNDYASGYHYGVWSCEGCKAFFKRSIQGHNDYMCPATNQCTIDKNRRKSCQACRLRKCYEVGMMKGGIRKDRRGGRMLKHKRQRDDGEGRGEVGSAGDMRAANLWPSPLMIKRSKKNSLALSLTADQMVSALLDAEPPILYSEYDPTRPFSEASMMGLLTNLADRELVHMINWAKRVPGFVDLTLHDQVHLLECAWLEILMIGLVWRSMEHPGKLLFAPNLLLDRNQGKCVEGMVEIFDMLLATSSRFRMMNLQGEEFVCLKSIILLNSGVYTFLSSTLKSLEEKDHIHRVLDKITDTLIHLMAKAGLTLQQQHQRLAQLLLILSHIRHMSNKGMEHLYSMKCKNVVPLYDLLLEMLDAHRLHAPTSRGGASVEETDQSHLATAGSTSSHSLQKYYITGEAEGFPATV

[1] = molecular target: T2, Peroxisome proliferator-activated receptor gamma (Homo sapiens, UniProt P37231); type: functional
T2 sequence (P37231 whole entry): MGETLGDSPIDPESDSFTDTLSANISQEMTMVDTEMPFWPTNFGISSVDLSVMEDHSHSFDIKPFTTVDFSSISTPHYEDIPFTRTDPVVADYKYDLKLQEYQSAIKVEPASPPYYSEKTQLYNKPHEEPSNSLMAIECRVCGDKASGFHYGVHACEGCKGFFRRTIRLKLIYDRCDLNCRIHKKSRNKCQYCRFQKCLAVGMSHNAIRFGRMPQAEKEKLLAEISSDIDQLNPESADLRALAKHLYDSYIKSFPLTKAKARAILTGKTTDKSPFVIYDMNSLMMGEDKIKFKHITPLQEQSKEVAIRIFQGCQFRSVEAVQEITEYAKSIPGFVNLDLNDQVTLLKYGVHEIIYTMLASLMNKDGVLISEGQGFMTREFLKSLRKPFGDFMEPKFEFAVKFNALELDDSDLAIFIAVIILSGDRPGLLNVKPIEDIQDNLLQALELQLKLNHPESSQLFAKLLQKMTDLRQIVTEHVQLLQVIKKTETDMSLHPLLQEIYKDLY

Adenosine receptor A3 = molecular target: T3, Adenosine receptor A3 (Homo sapiens, UniProt P0DMS8)
T3 sequence (P0DMS8 whole entry): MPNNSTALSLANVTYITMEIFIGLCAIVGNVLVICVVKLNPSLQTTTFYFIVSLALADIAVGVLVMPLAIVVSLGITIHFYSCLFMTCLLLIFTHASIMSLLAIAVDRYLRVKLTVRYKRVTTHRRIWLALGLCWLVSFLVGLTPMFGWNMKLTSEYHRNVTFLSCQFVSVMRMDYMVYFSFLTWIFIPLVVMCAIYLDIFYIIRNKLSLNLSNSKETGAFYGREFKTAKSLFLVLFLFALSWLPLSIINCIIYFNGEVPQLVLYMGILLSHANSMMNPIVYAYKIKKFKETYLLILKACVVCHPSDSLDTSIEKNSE

[2] = molecular target: T4, Amine oxidase [flavin-containing] A (Homo sapiens, UniProt P21397); type: functional
T4 sequence (P21397 whole entry): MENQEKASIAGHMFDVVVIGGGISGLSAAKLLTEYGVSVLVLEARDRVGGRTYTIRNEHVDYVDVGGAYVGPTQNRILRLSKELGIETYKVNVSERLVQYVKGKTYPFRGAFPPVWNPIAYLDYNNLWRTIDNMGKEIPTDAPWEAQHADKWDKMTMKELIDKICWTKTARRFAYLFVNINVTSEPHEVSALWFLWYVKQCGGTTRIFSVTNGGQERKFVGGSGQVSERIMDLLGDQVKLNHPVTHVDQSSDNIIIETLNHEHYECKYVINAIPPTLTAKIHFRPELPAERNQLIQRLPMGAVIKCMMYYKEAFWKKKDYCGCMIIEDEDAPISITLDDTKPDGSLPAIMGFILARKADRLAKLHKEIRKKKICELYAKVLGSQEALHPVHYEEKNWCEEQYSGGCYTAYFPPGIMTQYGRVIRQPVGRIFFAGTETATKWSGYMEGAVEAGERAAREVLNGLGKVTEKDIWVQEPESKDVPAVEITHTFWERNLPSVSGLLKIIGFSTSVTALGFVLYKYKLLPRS

[3] = molecular target: Prostaglandin G/H synthase 1 (Homo sapiens, UniProt P23219); type: functional
[4] = molecular target: 5-hydroxytryptamine receptor 2A (Homo sapiens, UniProt P28223)
Estrogen receptor beta = Estrogen receptor beta (Homo sapiens, UniProt Q92731)
[5] = molecular target: 5-hydroxytryptamine receptor 6 (Homo sapiens, UniProt P50406)
Note: assay procedure not described here.

Chain of 5-hydroxytryptamine receptor 6 (P50406 whole entry): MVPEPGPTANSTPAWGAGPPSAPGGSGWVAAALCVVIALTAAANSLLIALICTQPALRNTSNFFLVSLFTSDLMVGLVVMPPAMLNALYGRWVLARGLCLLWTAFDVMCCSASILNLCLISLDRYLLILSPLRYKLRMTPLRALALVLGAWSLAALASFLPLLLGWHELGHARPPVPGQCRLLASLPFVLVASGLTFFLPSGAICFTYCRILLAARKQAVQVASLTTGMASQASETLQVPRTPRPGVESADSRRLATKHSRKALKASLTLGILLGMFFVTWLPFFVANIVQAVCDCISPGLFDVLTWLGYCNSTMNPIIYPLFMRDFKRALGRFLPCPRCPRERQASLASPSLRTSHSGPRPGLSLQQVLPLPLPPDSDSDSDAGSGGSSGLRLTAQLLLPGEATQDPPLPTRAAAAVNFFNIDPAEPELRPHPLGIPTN
Chain of Estrogen receptor beta (Q92731 whole entry): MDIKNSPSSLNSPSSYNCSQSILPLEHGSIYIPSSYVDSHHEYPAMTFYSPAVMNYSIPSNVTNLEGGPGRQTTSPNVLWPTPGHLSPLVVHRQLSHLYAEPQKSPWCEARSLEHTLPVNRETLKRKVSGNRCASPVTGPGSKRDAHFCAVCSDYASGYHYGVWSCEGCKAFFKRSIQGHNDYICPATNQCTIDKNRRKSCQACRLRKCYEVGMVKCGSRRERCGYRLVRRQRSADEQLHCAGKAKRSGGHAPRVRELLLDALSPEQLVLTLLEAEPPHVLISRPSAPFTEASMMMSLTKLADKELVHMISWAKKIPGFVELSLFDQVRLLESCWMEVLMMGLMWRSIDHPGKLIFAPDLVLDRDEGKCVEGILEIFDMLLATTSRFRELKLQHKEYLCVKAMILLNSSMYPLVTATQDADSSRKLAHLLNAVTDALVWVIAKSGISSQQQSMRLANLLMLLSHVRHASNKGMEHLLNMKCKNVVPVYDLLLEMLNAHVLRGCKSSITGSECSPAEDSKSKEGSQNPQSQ
Chain of Prostaglandin G/H synthase 1 (P23219 whole entry): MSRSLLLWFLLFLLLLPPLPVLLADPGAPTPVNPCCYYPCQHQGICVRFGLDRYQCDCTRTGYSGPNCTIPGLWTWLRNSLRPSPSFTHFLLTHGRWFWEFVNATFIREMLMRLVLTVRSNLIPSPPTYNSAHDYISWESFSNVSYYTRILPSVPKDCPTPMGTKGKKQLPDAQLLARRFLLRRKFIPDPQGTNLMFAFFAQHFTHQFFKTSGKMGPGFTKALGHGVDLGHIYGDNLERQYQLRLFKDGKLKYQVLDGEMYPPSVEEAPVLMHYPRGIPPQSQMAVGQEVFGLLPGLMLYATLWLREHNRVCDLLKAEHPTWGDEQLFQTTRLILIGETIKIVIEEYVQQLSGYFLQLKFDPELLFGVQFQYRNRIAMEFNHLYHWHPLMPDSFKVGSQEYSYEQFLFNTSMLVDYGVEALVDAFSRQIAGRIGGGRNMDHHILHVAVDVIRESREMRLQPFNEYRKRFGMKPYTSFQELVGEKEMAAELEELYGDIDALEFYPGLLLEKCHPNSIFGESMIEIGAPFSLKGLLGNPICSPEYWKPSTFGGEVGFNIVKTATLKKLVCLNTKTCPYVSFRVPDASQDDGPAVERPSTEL
Chain of 5-hydroxytryptamine receptor 2A (P28223 whole entry): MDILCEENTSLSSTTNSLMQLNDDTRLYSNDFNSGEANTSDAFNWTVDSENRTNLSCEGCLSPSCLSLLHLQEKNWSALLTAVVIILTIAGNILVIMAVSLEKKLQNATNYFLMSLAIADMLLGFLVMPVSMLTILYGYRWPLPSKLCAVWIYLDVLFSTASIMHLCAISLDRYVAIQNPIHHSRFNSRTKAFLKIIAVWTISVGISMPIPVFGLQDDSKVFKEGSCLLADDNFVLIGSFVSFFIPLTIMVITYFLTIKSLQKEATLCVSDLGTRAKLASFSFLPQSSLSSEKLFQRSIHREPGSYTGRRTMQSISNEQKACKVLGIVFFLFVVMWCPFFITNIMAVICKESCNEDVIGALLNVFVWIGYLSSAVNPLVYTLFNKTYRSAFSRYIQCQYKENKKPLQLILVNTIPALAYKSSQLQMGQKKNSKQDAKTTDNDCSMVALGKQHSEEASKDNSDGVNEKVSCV

## THIMEROSAL
Estrogen receptor
  AC50: > 30 µM

## Brc1c(NC2=NCCN2)ccc2nccnc12 [BRIMONIDINE]
[1]
  AC50: > 30 µM

## CO[C@]12C[C@@H](COC(=O)c3cncc(Br)c3)CN(C)[C@@H]1Cc1cn(C)c3cccc2c13 [NICERGOLINE]
Adenosine receptor A3
  AC50: 22.4 µM
[2]
  AC50: > 30 µM
[3]
  AC50: > 30 µM

## Cc1nnc2n1-c1ccc(Cl)cc1C(c1ccccc1Cl)=NC2 [TRIAZOLAM]
[4]
  AC50: 3.2 µM

## Cc1c(OCC(F)(F)F)ccnc1C[S+]([O-])c1nc2ccccc2[nH]1 (stereo not drawn) [LANSOPRAZOLE]
Estrogen receptor beta
  AC50: > 30 µM
[5]
  AC50: > 10 µM
